Source: US4443436A, “C-20-Modified macrolide derivatives of the macrolide antibiotics tylosin, desmycosin, macrocin, and lactenocin” (Eli Lilly and Company, priority 1982, dated 1984)
In brackets after ≈: the same amount, converted by molar mass. Where two headings read alike, the source gives them in different places.

Experiments:
[1] = tested on: Staphylococcus aureus X1.1; experiment: MIC, standard agar-dilution assay, Staphylococcus aureus X1.1; format: cell-based; details: Staphylococcus aureus, X1.1
[2] = tested on: Staphylococcus aureus V41; experiment: MIC, standard agar-dilution assay, Staphylococcus aureus V41; format: cell-based
[3] = tested on: Staphylococcus aureus X400; experiment: MIC, standard agar-dilution assay, Staphylococcus aureus X400; format: cell-based; details: Staphylococcus aureus, X400
[4] = tested on: Staphylococcus aureus S13E; experiment: MIC, standard agar-dilution assay, Staphylococcus aureus S13E; format: cell-based; details: Staphylococcus aureus, S13E
[5] = tested on: Staphylococcus epidermidis EPI1; experiment: MIC, standard agar-dilution assay, Staphylococcus epidermidis EPI1; format: cell-based
[6] = tested on: Staphylococcus epidermidis EPI2; experiment: MIC, standard agar-dilution assay, Staphylococcus epidermidis EPI2; format: cell-based; details: Staphylococcus epidermidis, EPI2
[7] = tested on: Streptococcus pyogenes C203; experiment: MIC, standard agar-dilution assay, Streptococcus pyogenes C203; format: cell-based
[8] = tested on: Streptococcus pneumoniae Park I; experiment: microbe, parasite or virus in culture; format: cell-based; details: Streptococcus pneumoniae
Streptococcus Group 9960 = experiment: MIC, standard agar-dilution assay, Streptococcus Group 9960; format: cell-based; details: GROUP9960; Streptococcus Group 9960; agar dilution; read-out: MIC
[9] = tested on: Haemophilus influenzae Holt; experiment: MIC, standard agar-dilution assay, Haemophilus influenzae Holt; format: cell-based
[10] = tested on: Haemophilus influenzae R252; experiment: MIC, standard agar-dilution assay, Haemophilus influenzae R252; format: cell-based
Staphylococcus aureus = experiment: MIC, broth-dilution microtiter test, Staphylococcus aureus; format: cell-based
Source text: (§1) The MIC's in Table X were obtained using conventional broth-dilution microtiter tests.

Streptococcus bovis 80 = experiment: MIC, broth-dilution microtiter test, Streptococcus bovis 80; format: cell-based; details: Streptococcus equinus
Source text: as §1

[11] = tested on: Pasteurella multocida 17E; experiment: MIC, broth-dilution microtiter test, Pasteurella multocida 17E; format: cell-based
Source text: as §1

[12] = tested on: Pasteurella multocida 60A; experiment: MIC, broth-dilution microtiter test, Pasteurella multocida 60A; format: cell-based; details: Pasteurella multocida 60A; avian isolate; broth-dilution microtiter; read-out: MIC
Source text: as §1

[13] = tested on: Pasteurella hemolytica 22C; experiment: MIC, broth-dilution microtiter test, Pasteurella hemolytica 22C; format: cell-based; details: Pasteurella hemolytica 22C; broth-dilution microtiter; read-out: MIC
Source text: as §1

Mycoplasma gallisepticum = experiment: MIC, broth-dilution microtiter test, Mycoplasma gallisepticum; format: cell-based; details: Mycoplasmoides gallisepticum
Source text: as §1

Mycoplasma synoviae = experiment: MIC, broth-dilution microtiter test, Mycoplasma synoviae; format: cell-based; details: Mycoplasmopsis synoviae
Source text: as §1

Mycoplasma hyorhinis = experiment: MIC, broth-dilution microtiter test, Mycoplasma hyorhinis; format: cell-based; details: Mycoplasma hyorhinis; broth-dilution microtiter; read-out: MIC
Source text: as §1

[14] = tested on: Streptococcus pyogenes C203; experiment: In vivo protection of mice experimentally infected with S. pyogenes C203; details: Streptococcus pyogenes, mice, doses given 1 and 4 hours post-infection
Protocol: The C-20 modified derivatives of this invention have shown in vivo antimicrobial activity against experimentally-induced infections in laboratory animals. When two doses of test compound were administered to mice experimentally infected with S. pyogenes C203, the activity observed was measured as an ED50 value [effective dose in mg/kg to protect 50% of the test animals: see Warren Wick, et al., J. Bacteriol. 81, 233-235 (1961)].

[15] = tested on: Streptococcus Group D X66; experiment: MIC, standard agar-dilution assay, Streptococcus Group D X66; format: cell-based
[16] = Staphylococcus epidermidis, EPI1
[17] = Haemophilus influenzae R252, ampicillin-resistant strain, read-out: MIC
[18] = C203, sc, subcutaneous, read-out: ED50, Subcutaneous
[19] = C203, oral, read-out: ED50, Oral
[20] = Streptococcus Group D X66, agar dilution, read-out: MIC
[21] = Haemophilus influenzae Holt, ampicillin-sensitive strain, read-out: MIC
[22] = Streptococcus bovis 80, broth-dilution microtiter, read-out: MIC
[23] = Pasteurella multocida 17E, bovine isolate, broth-dilution microtiter, read-out: MIC

CCC1OC(=O)CC(O)C(C)C(OC2OC(C)C(OC3CC(C)(O)C(O)C(C)O3)C(N(C)C)C2O)C(CCN2C(=O)c3ccccc3C2=O)CC(C)C(=O)C=CC(C)=CC1COC1OC(C)C(O)C(OC)C1OC (centres unmarked) [Compound 1, 20-DH-DO-20-N-Phthalimidotylosin] showed an MIC [1] of 1 µg/mL (≈ 0.955 µM), an MIC ([2]; Staphylococcus aureus, V41) of 1 µg/mL (≈ 0.955 µM) and an MIC [3] of 2 µg/mL (≈ 1.91 µM). The MIC [4] was 1 µg/mL (≈ 0.955 µM), the MIC [5, 16] was 1 µg/mL (≈ 0.955 µM) and the MIC [6] was 1 µg/mL (≈ 0.955 µM). For the same compound, the MIC ([7]; Streptococcus pyogenes, C203) was 2 µg/mL (≈ 1.91 µM), the MIC [8] was 32 µg/mL (≈ 30.6 µM) and the MIC (Streptococcus Group 9960) was 128 µg/mL (≈ 122 µM). It also gave an MIC ([9]; Haemophilus influenzae) greater than 128 µg/mL, an MIC [10, 17] greater than 128 µg/mL and an MIC (Staphylococcus aureus) of 6.25 µg/mL (≈ 5.97 µM). It also gave an MIC (Streptococcus bovis 80; 80) of 50 µg/mL (≈ 47.7 µM), an MIC ([11]; Pasteurella multocida, 17E) greater than 50 µg/mL and an MIC [12] greater than 50 µg/mL. For the same compound, the MIC [13] was greater than 50 µg/mL, the MIC (Mycoplasma gallisepticum) was 3.12 µg/mL (≈ 2.98 µM) and the MIC (Mycoplasma synoviae) was 6.25 µg/mL (≈ 5.97 µM). The MIC (Mycoplasma hyorhinis) was greater than 50 µg/mL, the ED50 [14, 18] was greater than 6.3 mg/kg and the ED50 [14, 19] was 71 mg/kg.

Compound CCC1OC(=O)CC(O)C(C)C(OC2OC(C)C(OC3CC(C)(O)C(O)C(C)O3)C(N(C)C)C2O)C(CCN=[N+]=[N-])CC(C)C(=O)C=CC(C)=CC1COC1OC(C)C(O)C(OC)C1OC (centres unmarked) [Compound 2, 20-DH-DO-20-Azidotylosin] has an MIC [1] of 2 µg/mL (≈ 2.12 µM), an MIC ([2]; Staphylococcus aureus, V41) of 1 µg/mL (≈ 1.06 µM) and an MIC [3] of 2 µg/mL (≈ 2.12 µM). For the same compound, the MIC [4] was 1 µg/mL (≈ 1.06 µM), the MIC [5, 16] was 1 µg/mL (≈ 1.06 µM) and the MIC ([7]; Streptococcus pyogenes, C203) was 2 µg/mL (≈ 2.12 µM). It also gave an MIC [8] of 32 µg/mL (≈ 33.9 µM), an MIC [15, 20] of 128 µg/mL (≈ 136 µM) and an MIC (Streptococcus Group 9960) of 128 µg/mL (≈ 136 µM). For the same compound, the MIC [9, 21] was greater than 128 µg/mL, the MIC [10, 17] was greater than 128 µg/mL and the MIC (Staphylococcus aureus) was 3.12 µg/mL (≈ 3.31 µM). It also gave an MIC (Streptococcus bovis 80; [22]) of 50 µg/mL (≈ 53 µM), an MIC [11, 23] greater than 50 µg/mL and an MIC [12] greater than 50 µg/mL. The MIC [13] was greater than 50 µg/mL, the MIC (Mycoplasma gallisepticum) was 1.56 µg/mL (≈ 1.65 µM) and the MIC (Mycoplasma synoviae) was 12.5 µg/mL (≈ 13.3 µM). It also gave an MIC (Mycoplasma hyorhinis) greater than 50 µg/mL, an ED50 [14, 18] greater than 6.3 mg/kg and an ED50 [14, 19] of 18 mg/kg.

With CCC1OC(=O)CC(O)C(C)C(OC2OC(C)C(OC3CC(C)(O)C(O)C(C)O3)C(N(C)C)C2O)C(CCSc2nnnn2C)CC(C)C(=O)C=CC(C)=CC1COC1OC(C)C(O)C(OC)C1OC (centres unmarked) [Compound 5, 20-DH-DO-20-[(1-N-Methyltetrazol-5-yl)thio]tylosin] the MIC [1] was 0.5 µg/mL (≈ 0.492 µM), the MIC ([2]; Staphylococcus aureus V41, penicillin-resistant strain, agar dilution, read-out: MIC) was 1 µg/mL (≈ 0.984 µM) and the MIC [3] was 2 µg/mL (≈ 1.97 µM). For the same compound, the MIC [4] was 2 µg/mL (≈ 1.97 µM), the MIC ([5]; Staphylococcus epidermidis EPI1, agar dilution, read-out: MIC) was 1 µg/mL (≈ 0.984 µM) and the MIC ([7]; Streptococcus pyogenes C203, agar dilution, read-out: MIC) was 1 µg/mL (≈ 0.984 µM). It also gave an MIC [8] of 32 µg/mL (≈ 31.5 µM), an MIC [15, 20] of 128 µg/mL (≈ 126 µM) and an MIC (Streptococcus Group 9960) of 128 µg/mL (≈ 126 µM). It also gave an MIC ([9]; Haemophilus influenzae) greater than 128 µg/mL, an MIC ([10]; Haemophilus influenzae, R252) of 128 µg/mL (≈ 126 µM) and an MIC (Staphylococcus aureus) of 1.56 µg/mL (≈ 1.54 µM). It also gave an MIC (Streptococcus bovis 80; [22]) greater than 50 µg/mL, an MIC [11, 23] greater than 50 µg/mL and an MIC [12] greater than 50 µg/mL. It also gave an MIC [13] greater than 50 µg/mL, an MIC (Mycoplasma gallisepticum) of 1.56 µg/mL (≈ 1.54 µM) and an MIC (Mycoplasma synoviae) of 3.12 µg/mL (≈ 3.07 µM). The MIC (Mycoplasma hyorhinis) was greater than 50 µg/mL, the ED50 [14, 18] was greater than 6.3 mg/kg and the ED50 [14, 19] was 56 mg/kg.

CCOC(=O)NN(CCC1CC(C)C(=O)C=CC(C)=CC(COC2OC(C)C(O)C(OC)C2OC)C(CC)OC(=O)CC(O)C(C)C1OC1OC(C)C(OC2CC(C)(O)C(O)C(C)O2)C(N(C)C)C1O)C(=O)OCC (centres unmarked) [Compound 9, 20-DH-DO-20-[N-(Ethoxycarbonyl)-N-(ethoxycarbonylamino)]aminotylosin] showed an MIC [1] of 2 µg/mL (≈ 1.86 µM), an MIC ([2]; Staphylococcus aureus, V41) of 2 µg/mL (≈ 1.86 µM) and an MIC [3] of 8 µg/mL (≈ 7.43 µM). It also gave an MIC [4] of 2 µg/mL (≈ 1.86 µM), an MIC [5, 16] of 4 µg/mL (≈ 3.72 µM) and an MIC [6] of 2 µg/mL (≈ 1.86 µM). The MIC ([7]; Streptococcus pyogenes, C203) was 16 µg/mL (≈ 14.9 µM), the MIC [8] was 2 µg/mL (≈ 1.86 µM) and the MIC [15] was greater than 128 µg/mL. The MIC (Streptococcus Group 9960) was greater than 128 µg/mL, the MIC [9, 21] was greater than 128 µg/mL and the MIC [10, 17] was greater than 128 µg/mL. The MIC (Staphylococcus aureus) was 6.25 µg/mL (≈ 5.81 µM), the MIC (Streptococcus bovis 80; [22]) was greater than 50 µg/mL and the MIC [11, 23] was greater than 50 µg/mL. For the same compound, the MIC [12] was greater than 50 µg/mL, the MIC [13] was greater than 50 µg/mL and the MIC (Mycoplasma gallisepticum) was 1.56 µg/mL (≈ 1.45 µM). For the same compound, the MIC (Mycoplasma synoviae; Mycoplasma synoviae, broth-dilution microtiter, read-out: MIC) was 25 µg/mL (≈ 23.2 µM) and the MIC (Mycoplasma hyorhinis) was greater than 50 µg/mL.
